Legend:
[1] = test system: CIA; assay: Collagen-induced arthritis (CIA) model; type: in vivo, C57BL mice
[2] = molecular target: T1, Arid5a binding to OX40 ADE-like stem loop (Mus musculus, UniProt Q3U108); assay: RNA-Arid5a binding assay; settings: Flag-Arid5a-enriched HEK293T lysate, immunoblot, FIG. 4
T1 construct: expressed in transfected cells; host or cells: HEK293T (cell lysate)
T1 sequence (Q3U108 1-590): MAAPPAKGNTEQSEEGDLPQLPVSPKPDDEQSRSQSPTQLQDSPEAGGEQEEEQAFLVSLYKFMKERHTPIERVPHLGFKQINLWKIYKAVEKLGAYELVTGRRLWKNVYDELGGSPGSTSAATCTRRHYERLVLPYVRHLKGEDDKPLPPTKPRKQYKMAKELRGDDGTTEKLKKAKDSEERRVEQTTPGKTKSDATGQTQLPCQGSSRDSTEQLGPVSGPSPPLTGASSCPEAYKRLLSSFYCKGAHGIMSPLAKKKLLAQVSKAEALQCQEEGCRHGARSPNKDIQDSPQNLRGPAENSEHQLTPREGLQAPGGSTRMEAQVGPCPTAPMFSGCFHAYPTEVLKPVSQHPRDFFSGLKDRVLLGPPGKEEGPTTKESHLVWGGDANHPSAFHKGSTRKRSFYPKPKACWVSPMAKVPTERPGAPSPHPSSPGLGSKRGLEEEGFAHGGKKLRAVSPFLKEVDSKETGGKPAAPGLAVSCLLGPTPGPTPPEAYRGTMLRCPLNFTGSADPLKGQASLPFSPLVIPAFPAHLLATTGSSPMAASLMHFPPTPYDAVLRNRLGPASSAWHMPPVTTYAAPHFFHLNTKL
Procedure: An RNA-protein binding assay was performed to confirm that POE inhibits the physical binding of Arid5a to the (ADE)-like stem loop in the OX40 3′UTR. Briefly, a 3′-biotinylated OX40 ADE-like stem loop (RNA; 5′-[…]-3′) (SEQ ID NO: 2) was conjugated to streptavidin beads. The OX40 ADE-like stem loop/streptavidin bead conjugate was then mixed with Flag-Arid5a-enriched HEK293T cell lysate, washed, and proteins bound to RNA were eluted for immunoblot. Anti-Flag antibodies were used to detect Flag-Arid5a in the eluate by SDS-PAGE analysis.

[3] = test system: IMQ-induced psoriasis; assay: IMQ-induced psoriasis model; type: in vivo, male BALB/c mice
Procedure: Experimental psoriasis was induced following a modified method described previously (Sun et al. 2013). To induce disease in male BALB/c mice (6-8 weeks; n=6), imiquimod (IMG; Sichuan Med-Shine Pharmaceutical) at 5% was applied topically at 20 mg/cm^2 on the inside of the right ear for 8 consecutive days. An evaluation system for assessment of erythema and thickness of the ear was developed. Erythema was assessed using a table with red […] (0-4) and ear thickness (0-4) measured using a digital caliber on days 2, 4, 6, and 8 after first IMQ application. The sum of the two parameters scores (ranging from 0-8) was used to indicate the overall clinical score. Treatment ointment was prepared by mixing 1 mg of DMSO-dissolved POE or its representative analogs including POE A2 or POE A3 with 20 gm of Vaseline Petroleum Jelly Original (vehicle, Unilever Inc.); the mixture was then incubated at room temperature overnight. From day 0 to day 8 the mice were treated topically with the treatment ointment (40 mg/cm^2) or Vaseline (IMQ/control). The mRNAs encoding Il6 and Il17a were isolated from whole biopsies of the ear (day 8) and reverse transcribed to make cDNA. The cDNA was then amplified by real-time PCR using TaqMan Gene Expression Assays (Mm00446190_ml, Mm00439618_ml, respectively; Applied Biosystems). The relative expression of mRNAs was calculated by the ΔΔCt method and presented relative to that of IMQ control mice.

[4] = molecular target: T2, Arid5a (Mus musculus, UniProt Q3U108); assay: Luciferase assay of Arid5a stabilizing function on 3′UTR of target mRNAs in HEK293T cells; type: cell-based
T2 construct: Flag; expressed in transfected cells; host or cells: HEK293T
T2 sequence (Q3U108 1-590): T1 sequence (Q3U108 1-590)
Procedure: Briefly, HEK293T cells were transfected with luciferase pGL-3 and empty pcDNA3.1 plasmids (Control), or pGL-3 plasmid encoding the 3′UTR of OX40, Il6 or Stat3, together with Arid5a-expressing pcDNA3.1 plasmid. The cells were treated with DMSO (Control and Arid5a) or POE (10-60 μM) dissolved in DMSO. The mouse Arid5a (NP_001165676.1) cDNA (WT; ENSMUST00000115032.7) was cloned in a Flag-tagged pcDNA3.1 plasmid at Xba1 and Ecor1. Renilla-expressing plasmid was used as a control. Luciferase activity from cell lysates is shown relative to Control in FIGS. 1A-1C.
HEK293 T cells (ATCC) were transfected (Lipofectamine LTX; Invitrogen) with luciferase pGL-3 and empty peDNA 3.1 plasmids (Control), or pGL-3 plasmid encoding the 3′UTR of IL6 together with Arid5a-expressing pcDNA3.1 plasmid. Renila-expressing plasmid was used as a Control. The cells were treated with DMSO (Control and Arid5a) or POE or its analogs A1-3 (40 μM; Aurora) dissolved in DMSO. The mouse Arid5a (NP_001165676.1) cDNA (WT; ENSMUST00000115032.7) was cloned in a Flag-tagged pcDNA3.1 plasmid at Xba1 and EcoR1.
To examine whether the Arid5a inhibitors interact with the target domain of Arid5a (Pocket X), substitution mutations were introduced to the wild-type (WT) Arid5a at Phe56, Tyr137 and His140 to produce mutant Arid5a (mArid5a). Mutations were introduced to substitute Phe56 with Cys, Tyr137 with Ala, and His140 with Ala. Luciferase activity from cell lysates was quantified using a Dual Luciferase kit (Promega) and the results were shown relative to the Control.

[5] = topical ointment, day 8, FIG. 8B

O=C(CSc1nnc(-c2ccncc2)o1)c1ccccc1 [POE, 1-Phenyl-2-(5-pyridin-4-yl-[1,3,4]oxadiazol-2-ylsulfanyl)-ethanone]
CIA clinical scores ([1]; 0.25 mg i.p. on days 0, 3, 6, 9, 12, 15, 18, vs corn oil, FIG. 7A): comparably reduced CIA clinical scores
Serum level of IL-6 ([1]; 0.25 mg i.p., day 45, FIG. 7B): reduced serum levels of IL-6
Frequency of CD4+IL-17+ cells in the secondary lymphoid organs ([1]; 0.25 mg i.p., day 45, flow cytometry, FIG. 7C): reduced the frequency of CD4^+IL-17^+ cells
Physical binding of Arid5a to OX40 ADE-like stem loop [2]: inhibited the physical binding of Arid5a to OX40 ADE-like stem loop in a concentration-dependent manner
Clinical scores (erythema and thickness of the right ear) ([3]; topical ointment 40 mg/cm^2 day 0 to 8, vs Vaseline, FIG. 8A): comparably reduced clinical scores
Il6 mRNA expression in whole biopsies of the right ear [3, 5]: suppressed mRNA expression
Il17a mRNA expression in whole biopsies of the right ear [3, 5]: suppressed mRNA expression
Arid5a stabilizing function on Il6 3′UTR (luciferase activity relative to Control) ([4]; 40 μM, HEK293 T cells, WT Arid5a, FIG. 6): abolished the stabilizing function of Arid5a
Arid5a stabilizing function on the OX40 3′UTR (luciferase activity relative to Control) ([4]; POE 10-60 μM, HEK293T cells, FIG. 1A): inhibits Arid5a stabilizing function
Arid5a stabilizing function on the Il6 3′UTR (luciferase activity relative to Control) ([4]; POE 10-60 μM, HEK293T cells, FIG. 1B): inhibits Arid5a stabilizing function
Arid5a stabilizing function on the Stat3 3′UTR (luciferase activity relative to Control) ([4]; POE 10-60 μM, HEK293T cells, FIG. 1C): inhibits Arid5a stabilizing function
